Source: paper PMC9034974, “Physicochemical characterization of the recombinant lectin scytovirin and microbicidal activity of the SD1 domain produced in rice against HIV-1” (Plant Cell Reports, 2022)

Columns and labels:
Type in all cases: binding
[1] = target: T1, scytovirin (SVN) (Scytonema varium, UniProt P86041); assay: isothermal titration calorimetry; conditions: 10 mM sodium phosphate pH 7.4, 3 mM sodium azide, 30 °C; one set of identical sites
T1 sequence (P86041 1-95): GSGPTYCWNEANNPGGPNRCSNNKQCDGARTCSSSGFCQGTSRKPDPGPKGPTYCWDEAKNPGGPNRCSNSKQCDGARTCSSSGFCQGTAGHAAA
Excerpt: isothermal titration calorimetry on scytovirin (SVN)

[2] = target: T1, scytovirin (SVN); assay: differential scanning calorimetry; conditions: 10 mM sodium phosphate pH 7.4, 3 mM sodium azide; 20 µM protein, 60 °C/h; Tm of the complex, not a shift; free SVN in the 2nd table, row 3
Excerpt: differential scanning calorimetry on scytovirin (SVN)

[3] = target: T2, SD1 (structural domain 1 of scytovirin) (Scytonema varium, UniProt P86041); assay: differential scanning calorimetry; conditions: 10 mM sodium phosphate pH 7.4, 3 mM sodium azide; 20 µM protein, 60 °C/h; shift is a decrease (destabilization)
T2 construct: isolated N-terminal domain SD1 (residues 1-48), recombinant from E. coli, purified
T2 sequence (P86041 1-48): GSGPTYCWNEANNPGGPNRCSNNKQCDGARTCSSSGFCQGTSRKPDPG

Substance: nonamannoside
- Kd [1]: 3.99 ± 0.93 µM
- Tm °C [2]: 56.50 ± 0.05 °C

Substance: tetramannoside
- Kd [1]: 17.8 ± 2.75 µM
- ΔTm [3]: ~ 11.5 °C
